The target of data set [1] is T1, human nicotinic acetylcholine receptor subtype α4β2 (Homo sapiens, UniProt P17787+P43681).
T1 construct: expressed in transfected cells
Briefly: FLIPR nAChR α4β2 positive allosteric modulator activity. Type of data set: cell-based. The settings on record: HEK-293 cells stably expressing hα4β2; for Efficacy Response relative to Nicotine (%): maximal positively modulated response relative to maximal nicotine response (100 μM); for EC50: positive modulation of response to sub-maximal nicotine (EC20-30), peak values. The procedure: Characterization of hα4β2 Positive Allosteric Modulators Using FLIPR
The ability is determined relative to a maximal nicotine response (100 μM). The activity is determined as a fluorescence-based assay using a Fluorometric Imaging Plate Reader (FLIPR) as described below in more detail.
Full concentration/response curves are generated and EC50 values are calculated based on peak values. EC50 values (Effective Concentration) represent the concentration of the test substance, at which the nicotine-induced EC20-30 response is positively modulated such that the size of the response equals 50% of the maximal response. The maximal positively modulated response (efficacy) is determined relative to the reference (nicotine) response.

The text below walks through data of patent US20100029685A1 (NeuroSearch A/S, priority 2006, published 2010).

By EC50 is commonly meant the midpoint of the concentration-response curve. As usually defined, the melting point is the temperature, or range, at which the solid turns liquid.

T1 sequence (P43681 29-627 limits assumed): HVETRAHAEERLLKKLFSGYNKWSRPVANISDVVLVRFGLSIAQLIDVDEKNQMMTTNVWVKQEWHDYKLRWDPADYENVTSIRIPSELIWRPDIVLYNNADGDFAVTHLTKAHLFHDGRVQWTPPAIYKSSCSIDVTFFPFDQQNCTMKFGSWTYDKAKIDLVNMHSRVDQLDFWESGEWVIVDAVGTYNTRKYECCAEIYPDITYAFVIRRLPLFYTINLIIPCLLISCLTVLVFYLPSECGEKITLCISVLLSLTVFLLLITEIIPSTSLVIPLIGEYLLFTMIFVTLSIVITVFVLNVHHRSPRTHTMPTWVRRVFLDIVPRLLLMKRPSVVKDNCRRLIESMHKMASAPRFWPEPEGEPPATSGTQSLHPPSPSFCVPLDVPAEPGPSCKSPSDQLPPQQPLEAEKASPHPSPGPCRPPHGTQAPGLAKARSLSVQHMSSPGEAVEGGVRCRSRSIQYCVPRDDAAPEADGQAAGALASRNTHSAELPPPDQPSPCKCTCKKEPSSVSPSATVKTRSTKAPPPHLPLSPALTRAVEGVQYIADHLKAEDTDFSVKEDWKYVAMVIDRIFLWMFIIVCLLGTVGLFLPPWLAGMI
T1 sequence (P17787 26-502): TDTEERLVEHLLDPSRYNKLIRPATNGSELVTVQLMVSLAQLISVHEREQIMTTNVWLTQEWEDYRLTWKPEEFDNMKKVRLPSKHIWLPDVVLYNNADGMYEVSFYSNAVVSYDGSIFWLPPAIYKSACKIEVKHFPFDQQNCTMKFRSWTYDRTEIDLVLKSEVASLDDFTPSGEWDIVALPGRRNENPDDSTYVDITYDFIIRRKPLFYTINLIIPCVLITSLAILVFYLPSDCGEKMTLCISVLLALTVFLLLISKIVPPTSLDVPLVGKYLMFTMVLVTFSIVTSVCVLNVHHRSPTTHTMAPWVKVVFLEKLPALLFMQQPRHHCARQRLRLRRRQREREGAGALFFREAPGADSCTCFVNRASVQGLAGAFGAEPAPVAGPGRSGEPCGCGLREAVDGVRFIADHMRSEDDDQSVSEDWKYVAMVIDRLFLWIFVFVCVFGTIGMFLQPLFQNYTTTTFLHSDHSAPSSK

For the compound `N#Cc1cccc(-c2nnc(-c3cccnc3)o2)c1` [Compound 7.1, 3-(5-Pyridine-3-yl-[1,3,4]oxadiazol-2-yl)-benzonitrile], in data set [1], the “Efficacy Response relative to Nicotine (%)” value was determined as 133% and a half-maximal response (EC50) required 520 nM. Consider `O=[N+]([O-])c1ccc(-c2nnc(-c3cccnc3)o2)o1` [Compound 7.2, 3-(5-{5-Nitro-furan-2-yl}-[1,3,4]oxadiazol-2-yl)-pyridine], for which the melting point fell in the range of 165 to 168 °C. On to `N#Cc1ccc(-c2nnc(-c3cccnc3)o2)s1` [Compound 7.6], for which, in data set [1], the “Efficacy Response relative to Nicotine (%)” value is 153% and the EC50 is 980 nM. `N#Cc1cccc(-c2nnc(-c3cccc(C#N)c3)s2)c1` [Compound 8.2, 3-(5-{3-Cyano-phenyl}-[1,3,4]thiadiazol-2-yl)-benzonitrile] registered a melting point of 217 to 223 °C.
